From US20260027243A1, “AMPHIPHILIC COMPOUNDS FOR ATTENUATING NEUROTOXICITY OF AMYLOID-beta OLIGOMERS AND DIAGNOSTIC METHODS” (THE BOARD OF TRUSTEES OF THE UNIVERSITY OF ILLINOIS, priority 2022, published 2026)

How the values were obtained:
Aβ42 fibrils = target: T1, Aβ42 fibrils (Homo sapiens, UniProt P05067); experiment: Fluorescence saturation binding assay with Aβ42 fibrils; details: read-out: Kd value to Aβ42 fibrils
T1 construct: commercial Aβ42 monomer powder (from GL biochem); purchased GL biochem
Protocol: Preparation of the Aβ42 Fibrils and Aβ42 Oligomers. Aβ42 fibrils: 1 mg of commercial Aβ42 monomer powder (from GL biochem) was dissolved in 1 mL 1,1,1,3,3,3-hexafluoro-2-propanol (HFIP) at room temperature and incubated for 1 h. The resulting solution was divided equally into two Eppendorf tubes. The solution in each Eppendorf tube containing 0.5 mg Aβ42 monomer was then evaporated overnight and dried by vacuum centrifuge to generate monomeric films. […] Aβ42 fibrils solution was prepared by dissolving the 0.5 mg monomeric films in 1.1 mL PBS buffer (with final DMSO concentration less than 1%) and stirring at 37° C. for 3 days.
(§1) In Vitro Saturation Binding Studies with Aβ42 Fibrils and Aβ42 Oligomers. To a solution of increasing concentrations of compounds, a fixed concentration of the generated aggregated Aβ42 fibrils or Aβ42 oligomers solutions (5 to 15 NM) was added to yield a total volume of 100 μL. Nonspecific binding was determined […]. The mixture was incubated for 15 min at room temperature. All fluorescence data were obtained on a SpectraMax M2e plate reader (Molecular Devices). The fluorescent intensity was measured at the corresponding emission wavelength of each compound, and the Kd binding curves were generated by GraphPad Prism 8.0 with one site-specific binding model. Equation: Y=Bmax*X/(Kd+X).

Aβ42 oligomers = target: T2, Aβ42 oligomers (Homo sapiens, UniProt P05067); experiment: Fluorescence saturation binding assay with Aβ42 oligomers; details: read-out: Kd value to Aβ42 oligomers
T2 construct: commercial Aβ42 monomer powder (from GL biochem); purchased GL biochem
Protocol: Aβ42 oligomers: The 0.5 mg monomeric films were dissolved in 1.1 mL PBS buffer (with final DMSO concentration less than 1%) and incubated at 4° C. overnight. The resulting solution was then centrifuged at 3000 rpm for 15 mins to remove the insoluble aggregates. The clear supernatant was then used for the following experiments. Aβ42 oligomers concentration was checked by measuring the absorbance of the supernatant at 280 nm.
as §1

[1] = Log D by octanol-PBS partition; format: physicochemical; details: DCM compounds
Protocol: Log D measurements. The Log D value was measured following a published procedure using slight modifications. In general, compounds in 0.5 mL octanol was subjected to partition with 0.5 mL octanol-saturated PBS. The whole mixture was stirred vigorously for 5 min, and centrifuged at 2,000 rpm for 5 min. The top octanol layer was separated for later fluorescence measurement. The remaining PBS layer was partitioned with 0.5 mL PBS-saturated octanol, and the second top octanol layer was then separated after vigorous stirring and centrifuging at 2,000 rpm for another 5 min. The two octanol layers' fluorescence spectra were recorded. The log D value was calculated by the fluorescence intensity ratio at the compounds' emission wavelength for the above two octanol extractions.

[2] = tested on: human neuroblastoma cells (SH-SY5Y); experiment: Cytotoxicity of DCM compounds in SH-SY5Y cells; format: cell-based; details: at 2 μM
Source text: Fluorescence Imaging of 5×FAD Mouse Brain Sections and blood-brain barrier (BBB) permeability. To confirm the developed compounds can also bind to native Aβ aggregates, we performed fluorescence imaging studies and colocalization experiments on 5×FAD mouse brain sections. […] This further supports that the compounds are selective and can bind to native soluble Aβ oligomers. Before investigating the blood-brain barrier (BBB) permeability of the developed compounds, their neurotoxicity was measured first (FIG. 12). […] DCM-OH-2 leads to less than 80% cell viability even at 2 μM, which is probably due to its poor solubility. Nevertheless, the DCM-OH-2-DT was chosen as the candidate to test the blood-brain barrier (BBB) permeability. 12-month-old AD mice were treated with compound DCM-OH-2-DT (0.1 mg/Kg) for 10 days via intraperitoneal injection. At the end of treatment, mice brains were harvested and colocalization experiments were performed on the mice brain sections.

T1 sequence (P05067 672-713 limits assumed): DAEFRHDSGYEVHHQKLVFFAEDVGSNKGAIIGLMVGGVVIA
T2 sequence (P05067 672-713 limits assumed): as above

With N#CC(C#N)=C1C=C(/C=C/C=C/c2ccc(O)cc2)Oc2ccccc21 [DCM-OH-2] the Kd (Aβ42 fibrils) was 80 nM, the Kd (Aβ42 oligomers) was 120 nM and the logD [1] was 0.96 ± 0.07. For the same compound, the cell viability [2] was “less than 80%”.
